Measurements reported in US9802929B2, “Benzo five-membered nitrogen heterocyclic piperidine or piperazine derivatives and preparation methods and pharmaceutical compositions thereof” (Shenyang Haiwang Biotechnology Co., Ltd., priority 2012, dated 2017).

What was measured:
[1] = system: In-Vitro Vascular Smooth Muscle of Rabbits; assay: Relaxant effect on in vitro rabbit vascular smooth muscle contraction induced by hyperkalemia solution; conditions: for EC50: Oryctolagus cuniculus, relaxation of rabbit aortic rings contracted by hyperkalemia solution (K+ 60 mmol/L); for relaxant effect against hyperkalemia solution contraction (in words): rabbit vascular smooth muscle
[2] = system: In Vitro Vascular Smooth Muscle of Rabbits; assay: Relaxant effect on in vitro rabbit vascular smooth muscle contraction induced by adrenaline (AD); conditions: for EC50: Oryctolagus cuniculus, relaxation of rabbit aortic rings contracted by AD (10^−5 mol/L); for relaxant effect against AD contraction (in words): rabbit vascular smooth muscle, AD 10^−5 mol/L
Source text: Krebs-Henseleit (K—H) physiological solution: NaCl 6.92 (concentration units), KCl 0.35, MgSO4 0.29, KH2PO4 0.16, CaCl2 0.28, NaHCO3 2.1, glucose 2.0 (g/L), pH 7.2.
Preparation of compound II-1 to II-87 solutions: Weigh a certain quality compound samples and dilute to concentrations (10^−10˜10^−3 mol/L) with distilled water, standby.
Cut the chest open quickly after stunning, strip out the descending aorta, then after removing the surrounding connective tissue and adipose tissue (if performed serotonin receptor antagonist experiments, endothelial cells should be removed using a smooth stainless steel bars), cut the vessels into 3-5 mm vascular ring, then pass the steel hook through the blood vessel ring, with one end is fixed to the vent hook and the other end connected to the tension transducer, then place the specimens into bath tube containing 20 mL of nutrient solution, and record tension change by tension transducer. Maintain tube temperature at 37±0.5° C., and pass bubbles (95% O2+5% CO2) into the solution as a speed of 1-2 bubbles/minute. Place an initial load of 1.5 g on the rings, and change nutrient every 20 minutes, then balance for 2 hours and start test after baseline readings are stabilized.
After tension readings are stabilized, record a certain length of tension curve, and add spasmogens agent AD (10^−5 mol/L) to induce contraction; if a maximum contract is achieved, wash the specimens thoroughly, and change K—H solution every 20 minutes, and then balance for 60 minutes; after baseline readings are stabilized, induce contract with spasmogens agent again. When the maximum contract in the later induction is consistent with the former induction, add compound II-1 to II-34 solutions (1×10^−10 to 1×10^−3 mol/L), II-35 to II-87 solutions (1×10^−8-1×10^−3 mol/L), and record the curves. Draw a dose-response curve using maximum relaxation response as 100%, relaxation percentage as ordinate and negative logarithms of the each concentration as abscissa.

| Compound | EC50 [1] [µM] | further results |
| --- | --- | --- |
| Clc1cccc(N2CCN(CCCCn3cnc4ccccc43)CC2)c1Cl [Compound II-37, 1-(4-(4-(2,3-dichlorophenyl)piperazin-1-yl)butyl)-1H-benzimidazole] | 3.24 | EC50 [2]: 0.977 µM; relaxant effect against AD contraction (in words) [2]: most significant relaxation effects; relaxant effect against hyperkalemia solution contraction (in words) [1]: significant relaxant effect |
| Clc1cccc(N2CCN(CCCCn3nnc4ccccc43)CC2)c1 [Compound II-63, 1-(4-(4-(3-chlorophenyl)piperazin-1-yl)butyl)-1H-benzotriazole] | 2.29 | EC50 [2]: 0.977 µM; relaxant effect against AD contraction (in words) [2]: most significant relaxation effects; relaxant effect against hyperkalemia solution contraction (in words) [1]: significant relaxant effect |
| FC(F)(F)c1cccc(C2CCN(CCCCn3nnc4ccccc43)CC2)c1 [II-4, N-(4-(1H-benzotriazole-1-yl)butyl)-4-(3-trifluoromethylphenyl)piperidine] | 0.759 | – |
| Fc1ccc2nnn(CCCCN3CCC(c4cccc(C(F)(F)F)c4)CC3)c2c1 [II-7, N-(4-(6-fluoro-1H-benzotriazole-1-yl)butyl)-4-(3-trifluoromethylphenyl)piperidine] | 9.33 | – |
| COc1ccc2nnn(CCCCN3CCC(c4cccc(C(F)(F)F)c4)CC3)c2c1 [II-8, N-(4-(6-methoxy-1H-benzotriazole-1-yl)butyl)-4-(3-trifluoromethylphenyl)piperidine] | 27.5 | – |
| N#Cc1ccc2nnn(CCCCN3CCC(c4cccc(C(F)(F)F)c4)CC3)c2c1 [II-9, N-(4-(6-cyano-1H-benzotriazole-1-yl)butyl)-4-(3-trifluoromethylphenyl)piperidine] | 58.9 | – |
| FC(F)(F)c1cccc(C2CCN(CCCOn3nnc4ccccc43)CC2)c1 [II-10, N-(4-(1H-benzotriazole-1-yl)propoxy)-4-(3-trifluoromethylphenyl)piperidine] | 6.03 | – |
| FC(F)(F)c1cccc(C2CCN(CCCOn3cnc4ccccc43)CC2)c1 [II-11] | 6.76 | – |
| Cc1ccc2c(C3CCN(CCCn4nnc5ccccc54)CC3)noc2c1 [II-12, N-(3-(1H-benzotriazole-1-yl)propyl)-4-(3-(6-methyl-benzisoxazole))piperidine] | 8.13 | – |
| COc1ccc2c(C3CCN(CCCn4nnc5ccccc54)CC3)noc2c1 [II-13, N-(3-(1H-benzotriazole-1-yl)propyl)-4-(3-(6-methoxy-benzene and isoxazole))piperidine] | 7.59 | – |
| Fc1ccc2c(C3CCN(CCCn4nnc5ccc(F)cc54)CC3)noc2c1 [II-14, N-(3-(6-fluoro-1H-benzotriazole-1-yl)propyl)-4-(3-(6-fluorobenzoisoxazole))piperidine] | 1.91 | – |
| Fc1ccc2c(C3CCN(CCCn4nnc5ccc(Cl)cc54)CC3)noc2c1 [II-15, N-(3-(6-chloro-1H-benzotriazole-1-yl)propyl)-4-(3-(6-fluorobenzoisoxazole))piperidine] | 7.59 | – |
| Cc1ccc2nnn(CCCN3CCC(c4noc5cc(F)ccc45)CC3)c2c1 [II-16, N-(3-(6-methyl-1H-benzotriazole-1-yl)propyl)-4-(3-(6-fluorobenzoisoxazole))piperidine] | 5.25 | – |
| O=Cc1ccc2nnn(CCCN3CCC(c4noc5cc(F)ccc45)CC3)c2c1 [II-18, N-(3-(6-formyl-1H-benzotriazole-1-yl)propyl)-4-(3-(6-fluorobenzoisoxazole))piperidine] | 4.79 | – |
| COc1ccc2nnn(CCCN3CCC(c4noc5ccccc45)CC3)c2c1 [II-19, N-(3-(6-methoxybenzotriazolyl)propyl)-4-(3-benzoisoxazole)piperidine] | 7.76 | – |
| COc1ccc2c(C3CCN(CCCCn4nnc5ccc(C#N)cc54)CC3)noc2c1 [II-23, N-(4-(6-cyano-benzotriazole-yl)butyl)-4-(3-(6-methoxy-benzene and isoxazole)) piperidine] | 58.9 | – |
| c1ccc2c(c1)nnn2CCCCN1CCC(C2CCCCC2)CC1 [II-32, N-(4-(1H-benzotriazole-1-yl)butyl)-4-cyclohexyl piperidine] | 72.4 | – |
| N#Cc1ccc2nnn(CCCCN3CCN(c4cccc(C(F)(F)F)c4)CC3)c2c1 [II-84, 6-cyano-1-(4-(4-(3-trifluoromethylphenyl)piperazin-1-yl)butyl)-1H-benzotriazole] | 49 | – |
| COC(=O)c1ccc2nnn(CCCCN3CCN(c4cccc(C(F)(F)F)c4)CC3)c2c1 [II-85, 6-methoxycarbonyl-1-(4-(4-(3-trifluoromethylphenyl)piperazin-1-yl)butyl)-1H-benzotriazole] | 77.6 | – |

Continued, in another order:

| EC50 [1] [µM] | Compound | further results |
| --- | --- | --- |
| 20.4 | Clc1cccc(C2CCN(CCCCn3cnc4ccccc43)CC2)c1 [Compound II-1, N-(4-(1H-benzimidazol-1-yl)butyl)-4-(3-chlorophenyl)piperidine] | – |
| 0.977 | FC(F)(F)c1cccc(C2CCN(CCCCn3cnc4ccccc43)CC2)c1 [Compound II-3, N-(4-(1H-benzimidazol-1-yl)butyl)-4-(3-trifluoromethylphenyl)piperidine] | – |
| 41.7 | COc1ccccc1C1CCN(CCCCn2cnc3ccccc32)CC1 [Compound II-6, N-(4-(1H-benzimidazol-1-yl)butyl)-4-(2-methoxyphenyl)piperidine] | – |
| 36.3 | Fc1cccc(C2CCN(CCCCn3cnc4ccccc43)CC2)c1 [II-5, N-(4-(1H-benzimidazol-1-yl)butyl)-4-(3-fluorophenyl)piperidine] | – |
| 29.5 | c1coc(C2CCN(CCCCn3cnc4ccccc43)CC2)c1 [II-29, N-(4-(1H-benzimidazol-1-yl)butyl)-4-(2-furyl)piperidine] | – |
| 55 | c1ccc2c(c1)ncn2CCCCN1CCC(c2ccncc2)CC1 [II-30, N-(4-(1H-benzimidazol-1-yl)butyl)-4-(4-pyridyl)piperidine] | – |
| 47.9 | c1cnc(C2CCN(CCCCn3cnc4ccccc43)CC2)nc1 [II-31, N-(4-(1H-benzimidazol-1-yl)butyl)-4-(2-pyrimidinyl)piperidine] | – |
| 91.2 | c1ccc2c(C3CCN(CCCCn4nnc5ccccc54)CC3)cccc2c1 [II-33, N-(4-(1H-benzotriazole-1-yl)butyl)-4-(1-naphthyl)piperidine] | – |
| 74.1 | c1ccc2nc(C3CCN(CCCCn4nnc5ccccc54)CC3)cnc2c1 [II-34, N-(4-(1H-benzotriazole-1-yl)butyl)-4-(2-quinoxalinyl)piperidine] | – |
| 117 | c1ccc2c(c1)ncn2CCCCN1CCN(c2n[nH]c3ccccc23)CC1 [II-54, 1-(4-(4-(3-benzopyrazolyl)piperazin-1-yl)butyl)-1H-benzimidazole] | EC50 [2]: 58.9 µM |
| 4.68 | Clc1cccc(N2CCN(CCCn3nnc4ccccc43)CC2)c1Cl [II-72, 1-(3-(4-(2,3-dichlorophenyl)piperazin-1-yl)propyl)-1H-benzotriazole] | EC50 [2]: 1.91 µM |
| 6.03 | Cc1cccc(N2CCN(CCCn3nnc4ccccc43)CC2)c1 [II-73, 1-(3-(4-(3-methylphenyl)piperazin-1-yl)propyl)-1H-benzotriazole] | EC50 [2]: 3.39 µM |
| 26.3 | Fc1ccc2c(N3CCN(CCCOn4nnc5ccccc54)CC3)noc2c1 [II-86] | EC50 [2]: 13.2 µM |
